# Experimental data published in US20100137240A1, “USE OF NUCLEOSIDE DERIVATIVES AS ANTI-KOI HERPES VIRUS IN FISH” (Katholieke Universiteit Leuven, priority 2007, published 2010).
# Read-outs that look alike come from different tables or passages of the source.
# What was measured:
# [1] = tested on: Koi Herpes virus (KHV); experiment: Inhibition of Koi Herpes Virus infections in cell culture (plaque / cytopathic effect, crystal violet); format: cell-based, Koi herpesvirus (KHV); settings: for IC50: Cyprinid herpesvirus 3, 120 h; for effect on KHV replication (in words): in vitro; for concentration resulting in complete inhibition of KHV replication: KHV in CCB cells, five days post infection
# Procedure: KHV inhibitory activity can be readily detected using the assays described herein, as well as other assays known to those of ordinary skill in the art. In general, carp cells are infected with KHV and are incubated with the compounds to be tested for inhibitory activity. A more detailed description is provided in the examples.
# (§1) Compounds for testing KHV-antiviral activity were dissolved in dimethylsulfoxide (DMSO) at a concentration of 20 mg/ml, then filtrated through a 0.45 μm filter to obtain a sterile solution. Common carp brain (CCB) cells were grown in minimum essential medium (MEM, commercially available from Invitrogen) containing 4.5 g/l glucose (D-glucose monohydrate, Merck) and 10% fetal calf serum (FCS, commercially available from BioWhittaker). Cells were incubated at 25° C. in a humid atmosphere containing 5% CO2. Confluent cell monolayers grown in 24 wells cluster dishes were inoculated with 200 plaque forming units (PFU) of KHV in 0.2 ml of serum free Dulbecco's Modified Eagle Medium (DMEM, commercially available from Invitrogen). […] Five days post infection (pi), viral plaques or virus induced cytopathic effects were observed by staining cells with a crystal violet (Merck) solution.
# as §1, with “Alternatively, PMEDAP was” for “Compounds for testing KHV-antiviral activity were”, “DMEM and propyleneglycol (33.3%)/ethanol(8.3%) (PE buffer) respectively,” for “dimethylsulfoxide (DMSO)”, “10 mg/ml.” for “20 mg/ml, then filtrated through a 0.45 μm filter to obtain a sterile solution.”, “modified eagle medium” for “Modified Eagle Medium”
# [2] = tested on: Koi Herpes virus (KHV); experiment: Pulse chase treatment with PMEDAP on KHV growth in vitro; format: cell-based, Koi herpesvirus (KHV); settings: 50 μg/ml PMEDAP for only the first 24 hours post infection, CCB cells, observed 5 days post-infection
# Procedure: PMEDAP was dissolved in DMSO at a concentration of 20 mg/ml then filtrated through a 0.45 μm filter. CCB cells were grown in 24-well culture plates in MEM containing 4.5 g/l glucose and 10% FCS. Cells were inoculated with 200 PFU of KHV in 0.2 ml of serum free DMEM. After 2 hours incubation, cells were overlaid with DMEM (4.5 g/l glucose, 10% FCS) containing 50 μg/ml of PMEDAP. Mock-infected cells and untreated infected cells (ND) were included as negative controls. At successive intervals pi, cells were washed twice with PBS then overlaid with complete DMEM. Five days pi, viral plaques were observed by a crystal violet assay.
# [3] = tested on: koi carps; experiment: In vivo koi carps toxicity experiment, intraperitoneal injection; set-up: species or system koi carps (Cyprinus carpio koi); settings: 50 mg/kg intraperitoneal, 10 consecutive days
# Procedure: Naïve adult koi carps were kept in 150-liter tanks with filtrated water maintained at 23° C. One group (n=12) was treated for 10 consecutive days, by intraperitoneal injection of PMEDAP (50 mg/kg) dissolved in 0.2 ml of DMEM. The other group (n=12), used as negative control, was injected with 0.2 ml DMEM. After 10 days, all fish were examined and weighed. Three fishes of each group were euthanized. Liver and kidney explants were treated for anatomopathology analysis.
# [4] = tested on: koi carps; experiment: In vivo koi carps toxicity experiment, intramuscular injection; set-up: species or system koi carps (Cyprinus carpio koi); settings: for Microscopic lesions: liver and kidney explants
# Procedure: An additional experiment was performed as following: Naive adult koi carps were kept in 60-liter tanks with filtrated water maintained at 23° C. […] (5 koi per group) were treated for 10 consecutive days, by intramuscular injection of 20 mg/kg PMEDAP ((“PMEDAP 20”) or 50 mg/kg PMEDAP (“PMEDAP 50”)) dissolved in 0.1 ml of DMEM. Two other groups (5 koi per group), used as negative controls, were injected with 0.1 ml of DMEM. After 10 days, all fish were examined and weighed. Three fishes of each group were euthanized. Liver and kidney explants were treated for anatomopathology analysis.
# [5] = tested on: KHV infections; settings: Ilouze et al., FEBS Letters (2006) 580(18) 4473-4478; cited from earlier work
# [6] = KHV (200 PFU) in CCB cells, compounds dissolved in DMSO, read five days post infection, read-out: IC50
# [7] = 20 mg/kg intramuscular, 10 consecutive days (PMEDAP 20)
# [8] = 50 mg/kg intramuscular, 10 consecutive days (PMEDAP 50)
smiles,measurement,setting,value
"O=c1[nH]c(=O)n([C@H]2C[C@H](O)[C@@H](CO)O2)cc1/C=C/Br [BVDU (brivudin), brivudin]",IC50,[1],100 µg/mL
same,effect on KHV replication (in words),[1],no effect or a very limited effect
"Nc1nc(O)c2ncn(COC(CO)CO)c2n1 [GCV (ganciclovir), ganciclovir]",IC50,[1]; [6],100 µg/mL
same,effect on KHV replication (in words),[1],no effect or a very limited effect
"Nc1ccn(C[C@@H](CO)OCP(=O)(O)O)c(=O)n1 [HPMPC, cidofovir]",IC50,[1]; [6],50 µg/mL
same,effect on KHV replication (in words),[1],no effect or a very limited effect
"O=C(O)P(=O)(O)O [PFA (foscarnet), foscarnet]",IC50,[1]; [6],> 100 µg/mL
"Nc1ncnc2c1ncn2CCOCP(=O)(O)O [PMEA (adefovir), 9-[2-phosphonylmethoxyethyl]adenine]",IC50,[1]; [6],6.5 µg/mL
same,concentration resulting in complete inhibition of KHV replication,[1],25 µg/mL
"Nc1nc(N)c2ncn(CCOCP(=O)(O)O)c2n1 [PMEDAP, 9-(2-phosphonylmethoxyethyl)-2,6-diaminopurine]",IC50,[1]; [6],4.8 µg/mL
same,concentration resulting in complete inhibition of KHV replication,[1],12.5 µg/mL
same,effect on KHV replication (in words),[1],highly active
same,inhibition of virus induced cytopathic effect,[2],complete inhibition
same,Clinical signs,[3],None
same,Survival (%),[3],100%
same,"mean weight of fishes, PMEDAP versus DMEM",[3],statistically similar
same,toxic effect (in words),[3],did not reveal any toxic effect
same,Microscopic lesions,[3]; liver and kidney explants,None
same,Mean final weight,[3]; mean initial weight 66.1 g,71.5 g
same,Clinical signs,[4]; [7],None
same,Survival (%),[4]; [7],100%
same,Microscopic lesions,[4]; [7],None
same,Mean final weight,"[4]; 20 mg/kg intramuscular, 10 consecutive days (PMEDAP 20), mean initial weight 23.1 g",21.3 g
same,Clinical signs,[4]; [8],None
same,Survival (%),[4]; [8],100%
same,Microscopic lesions,[4]; [8],None
same,Mean final weight,"[4]; 50 mg/kg intramuscular, 10 consecutive days (PMEDAP 50), mean initial weight 16.3 g",15.3 g
Nc1nc2c(ncn2COCCO)c(=O)[nH]1 [acyclovir],effect on KHV replication (in words),[1],no effect or a very limited effect
same,activity against KHV infections (in words),[5],inactive
